# Measurements reported in patent US20170065593A1, “Combination” (Novartis AG, priority 2009, published 2017).
# System: A549 lung cancer cell line
# Experiment: Assay 2: cell growth (CellTiterGlo, 72 hours), Ymin
# Assay type: cell-based
# Conditions: percent of T=0 (T=0 = 100%)
# Description: FIG. 5 depicts the effect of MEK inhibitor, mTOR inhibitor and their combination on A549 lung cancer cell line growth. […] Cells were treated with MEK inhibitor (two fold dilutions ranging from 7.3 uM-0.014 nM) or with mTOR inhibitor (two fold dilutions ranging from 14.6 uM-0.112 nM) or in combination with both compounds and incubated for 72 hours. Cell growth was measured using the CellTiterGlo (CTG) reagent (Promega) according to the manufacturer's protocol. Data were analyzed using the XLfit (IDBS Ltd.) curve-fitting tool for Microsoft Excel. Growth IC50 (gIC50) and Ymin values were generated using a four-parameter curve fit algorithm (XLFit algorithm #205). Results were expressed as a percent of the t=0 and plotted against the compound concentration. […] Formula below was used to calculate mutually exclusive combination index (CI). Data were reported as log CI, where the logarithm value of CI was calculated. […] Similar analysis was performed for all cell lines and Ymin results are depicted in FIG. 6.
substance,measurement,value
"N-{3-[3-cyclopropyl-5-(2-fluoro-4-iodo-phenylamino)6,8-dimethyl;-2,4,7-trioxo-3,4,6,7-tetrahydro-2H-pyrido[4,3-d]pyrimidin-1-yl]phenyl}acetamide [Compound A]",Ymin (lower Y value at any compound concentration),257%
